Measured values as given in ChEMBL document CHEMBL5696442, “Discovery of type II inhibitors of TGFβ-activated kinase 1 (TAK1) and mitogen-activated protein kinase kinase kinase kinase 2 (MAP4K2)” (J Med Chem, 2015).
Calls of active or inactive are those of the source. No cut-off for these calls is given here.

Experiments:
[1] = target: Cyclin-dependent kinase 16 (Homo sapiens) (UniProt Q00536); test: Inhibition of PCTAIRE1 Lys1 labeling site in human A-375 cells at 0.05 uM by KiNativ Profiling analysis relative to control; format: cell-based
[2] = target: Mitogen-activated protein kinase kinase kinase kinase 3 (Homo sapiens) (UniProt Q8IVH8); test: Inhibition of MAP4K3 (unknown origin) at 10 uM by Ambit Kinomescan binding assay relative to control
[3] = target: Tyrosine-protein kinase JAK1 (Homo sapiens) (UniProt P23458); test: Inhibition of JAK1 domain2 Lys1 labeling site in human A-375 cells at 0.5 uM by KiNativ Profiling analysis relative to control; format: cell-based
Sequence of Tyrosine-protein kinase JAK1 (Homo sapiens) (P23458 whole entry, the tested form may be a part): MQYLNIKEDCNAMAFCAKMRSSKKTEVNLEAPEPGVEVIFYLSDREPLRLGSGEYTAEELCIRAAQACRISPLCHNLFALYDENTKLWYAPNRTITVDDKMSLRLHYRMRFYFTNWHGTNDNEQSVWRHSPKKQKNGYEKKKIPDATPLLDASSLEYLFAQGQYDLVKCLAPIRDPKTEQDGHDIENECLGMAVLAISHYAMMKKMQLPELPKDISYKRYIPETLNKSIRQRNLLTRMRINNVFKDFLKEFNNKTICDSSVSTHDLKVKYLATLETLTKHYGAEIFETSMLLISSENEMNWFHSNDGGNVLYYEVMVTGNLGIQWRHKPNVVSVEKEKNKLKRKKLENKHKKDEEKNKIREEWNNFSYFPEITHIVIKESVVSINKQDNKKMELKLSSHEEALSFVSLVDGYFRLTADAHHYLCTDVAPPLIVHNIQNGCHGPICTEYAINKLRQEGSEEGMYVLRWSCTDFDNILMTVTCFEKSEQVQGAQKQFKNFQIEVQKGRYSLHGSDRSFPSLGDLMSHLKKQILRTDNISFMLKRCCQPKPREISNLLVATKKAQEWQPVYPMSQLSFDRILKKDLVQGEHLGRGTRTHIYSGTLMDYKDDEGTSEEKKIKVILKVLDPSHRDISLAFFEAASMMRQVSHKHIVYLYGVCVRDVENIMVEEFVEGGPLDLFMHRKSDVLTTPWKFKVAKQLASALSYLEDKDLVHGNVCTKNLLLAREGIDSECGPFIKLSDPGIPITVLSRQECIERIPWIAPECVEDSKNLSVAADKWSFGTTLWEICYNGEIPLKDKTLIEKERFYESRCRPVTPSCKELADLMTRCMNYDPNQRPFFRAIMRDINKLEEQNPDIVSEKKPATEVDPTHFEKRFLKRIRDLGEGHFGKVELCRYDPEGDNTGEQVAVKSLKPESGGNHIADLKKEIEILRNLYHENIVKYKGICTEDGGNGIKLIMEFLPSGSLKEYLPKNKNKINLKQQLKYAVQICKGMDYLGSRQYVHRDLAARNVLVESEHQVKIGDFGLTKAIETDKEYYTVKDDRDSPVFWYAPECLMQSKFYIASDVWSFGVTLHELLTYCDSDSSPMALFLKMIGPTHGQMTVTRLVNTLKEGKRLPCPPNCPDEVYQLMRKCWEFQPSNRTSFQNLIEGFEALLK

[4] = target: T1, Aurora kinase C (Homo sapiens) (UniProt Q9UQB9); test: Inhibition of AURKC (unknown origin) at 10 uM by Ambit Kinomescan binding assay
T1 sequence (whole entry): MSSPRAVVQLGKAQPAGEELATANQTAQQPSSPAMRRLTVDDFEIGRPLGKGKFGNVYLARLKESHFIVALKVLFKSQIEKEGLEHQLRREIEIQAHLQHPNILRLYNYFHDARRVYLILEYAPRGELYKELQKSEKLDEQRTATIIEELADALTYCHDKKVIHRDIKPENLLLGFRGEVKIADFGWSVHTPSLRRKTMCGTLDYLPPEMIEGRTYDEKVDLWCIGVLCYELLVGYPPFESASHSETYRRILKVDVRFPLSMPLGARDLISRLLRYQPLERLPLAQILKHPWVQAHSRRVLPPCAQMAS

[5] = target: Mitogen-activated protein kinase kinase kinase kinase 1 (Homo sapiens) (UniProt Q92918); test: Inhibition of HPK1 (unknown origin) at 10 uM by Ambit Kinomescan binding assay relative to control; values are per cent of control
[6] = target: Serine/threonine-protein kinase Nek6 (Homo sapiens) (UniProt Q9HC98); test: Inhibition of NEK6 (unknown origin) at 10 uM by Ambit Kinomescan binding assay
[7] = target: Cyclin-dependent kinase 20 (Homo sapiens) (UniProt Q8IZL9); test: Inhibition of CCRK Lys2 labeling site in human A-375 cells at 5 uM by KiNativ Profiling analysis relative to control; format: cell-based
Sequence of Cyclin-dependent kinase 20 (Homo sapiens) (Q8IZL9 whole entry, the tested form may be a part): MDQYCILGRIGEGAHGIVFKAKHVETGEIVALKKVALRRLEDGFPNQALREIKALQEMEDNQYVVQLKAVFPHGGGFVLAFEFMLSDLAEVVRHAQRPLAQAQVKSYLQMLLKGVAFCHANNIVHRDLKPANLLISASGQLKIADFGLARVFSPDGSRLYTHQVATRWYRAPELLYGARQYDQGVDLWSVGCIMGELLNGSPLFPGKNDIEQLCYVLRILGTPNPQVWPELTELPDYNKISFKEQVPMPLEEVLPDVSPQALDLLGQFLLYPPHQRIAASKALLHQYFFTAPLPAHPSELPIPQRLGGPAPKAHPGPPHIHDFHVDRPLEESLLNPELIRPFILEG

[8] = target: Tyrosine-protein kinase JAK1 (Homo sapiens) (UniProt P23458); test: Inhibition of JAK1 JH1 catalytic domain (unknown origin) at 10 uM by Ambit Kinomescan binding assay relative to control
[9] = target: Serine/threonine-protein kinase 17B (Homo sapiens) (UniProt O94768); test: Inhibition of DRAK2 (unknown origin) at 10 uM by Ambit Kinomescan binding assay
[10] = target: T2, Phosphatidylinositol 5-phosphate 4-kinase type-2 beta (Homo sapiens) (UniProt P78356); test: Inhibition of PIP5K2B (unknown origin) at 10 uM by Ambit Kinomescan binding assay
T2 sequence (whole entry): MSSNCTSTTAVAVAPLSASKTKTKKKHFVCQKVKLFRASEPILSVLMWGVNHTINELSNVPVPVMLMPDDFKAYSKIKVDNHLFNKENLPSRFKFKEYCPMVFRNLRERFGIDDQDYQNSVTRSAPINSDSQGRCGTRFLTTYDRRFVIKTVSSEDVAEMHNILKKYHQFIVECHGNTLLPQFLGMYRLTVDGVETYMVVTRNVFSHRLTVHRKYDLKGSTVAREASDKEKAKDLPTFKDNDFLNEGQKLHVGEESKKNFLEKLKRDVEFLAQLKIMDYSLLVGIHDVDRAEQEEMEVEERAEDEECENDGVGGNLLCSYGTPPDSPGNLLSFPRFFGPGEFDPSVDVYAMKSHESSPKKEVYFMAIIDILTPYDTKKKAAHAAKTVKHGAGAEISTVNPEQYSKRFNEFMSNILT

[11] = target: Tyrosine-protein kinase ITK/TSK (Homo sapiens) (UniProt Q08881); test: Inhibition of ITK (unknown origin) at 1 uM by Ambit Kinomescan binding assay relative to control
[12] = target: SNF-related serine/threonine-protein kinase (Homo sapiens) (UniProt Q9NRH2); test: Inhibition of SNRK (unknown origin) at 1 uM by Ambit Kinomescan binding assay relative to control
Sequence of SNF-related serine/threonine-protein kinase (Homo sapiens) (Q9NRH2 whole entry): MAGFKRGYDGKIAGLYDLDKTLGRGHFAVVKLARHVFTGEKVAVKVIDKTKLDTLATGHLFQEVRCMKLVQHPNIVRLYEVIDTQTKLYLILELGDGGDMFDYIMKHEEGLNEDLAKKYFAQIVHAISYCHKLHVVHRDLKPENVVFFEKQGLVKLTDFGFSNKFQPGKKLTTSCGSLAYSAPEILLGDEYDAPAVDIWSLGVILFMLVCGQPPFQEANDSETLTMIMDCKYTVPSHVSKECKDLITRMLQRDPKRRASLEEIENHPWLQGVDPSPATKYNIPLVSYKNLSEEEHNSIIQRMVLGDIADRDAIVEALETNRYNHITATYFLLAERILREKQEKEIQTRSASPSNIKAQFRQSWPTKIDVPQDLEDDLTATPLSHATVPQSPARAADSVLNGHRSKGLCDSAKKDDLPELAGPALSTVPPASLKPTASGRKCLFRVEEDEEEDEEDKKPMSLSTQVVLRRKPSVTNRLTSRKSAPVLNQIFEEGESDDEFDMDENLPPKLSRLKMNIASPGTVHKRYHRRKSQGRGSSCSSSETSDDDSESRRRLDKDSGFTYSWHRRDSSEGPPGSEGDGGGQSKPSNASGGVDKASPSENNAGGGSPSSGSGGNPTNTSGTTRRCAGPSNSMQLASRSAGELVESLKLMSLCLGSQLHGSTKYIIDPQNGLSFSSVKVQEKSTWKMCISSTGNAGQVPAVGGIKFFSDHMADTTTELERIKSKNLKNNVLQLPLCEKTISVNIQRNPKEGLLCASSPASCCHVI

[13] = target: Receptor tyrosine-protein kinase erbB-4 (Homo sapiens) (UniProt Q15303); test: Inhibition of ERBB4 (unknown origin) at 1 uM by Ambit Kinomescan binding assay relative to control
Sequence of Receptor tyrosine-protein kinase erbB-4 (Homo sapiens) (Q15303 whole entry): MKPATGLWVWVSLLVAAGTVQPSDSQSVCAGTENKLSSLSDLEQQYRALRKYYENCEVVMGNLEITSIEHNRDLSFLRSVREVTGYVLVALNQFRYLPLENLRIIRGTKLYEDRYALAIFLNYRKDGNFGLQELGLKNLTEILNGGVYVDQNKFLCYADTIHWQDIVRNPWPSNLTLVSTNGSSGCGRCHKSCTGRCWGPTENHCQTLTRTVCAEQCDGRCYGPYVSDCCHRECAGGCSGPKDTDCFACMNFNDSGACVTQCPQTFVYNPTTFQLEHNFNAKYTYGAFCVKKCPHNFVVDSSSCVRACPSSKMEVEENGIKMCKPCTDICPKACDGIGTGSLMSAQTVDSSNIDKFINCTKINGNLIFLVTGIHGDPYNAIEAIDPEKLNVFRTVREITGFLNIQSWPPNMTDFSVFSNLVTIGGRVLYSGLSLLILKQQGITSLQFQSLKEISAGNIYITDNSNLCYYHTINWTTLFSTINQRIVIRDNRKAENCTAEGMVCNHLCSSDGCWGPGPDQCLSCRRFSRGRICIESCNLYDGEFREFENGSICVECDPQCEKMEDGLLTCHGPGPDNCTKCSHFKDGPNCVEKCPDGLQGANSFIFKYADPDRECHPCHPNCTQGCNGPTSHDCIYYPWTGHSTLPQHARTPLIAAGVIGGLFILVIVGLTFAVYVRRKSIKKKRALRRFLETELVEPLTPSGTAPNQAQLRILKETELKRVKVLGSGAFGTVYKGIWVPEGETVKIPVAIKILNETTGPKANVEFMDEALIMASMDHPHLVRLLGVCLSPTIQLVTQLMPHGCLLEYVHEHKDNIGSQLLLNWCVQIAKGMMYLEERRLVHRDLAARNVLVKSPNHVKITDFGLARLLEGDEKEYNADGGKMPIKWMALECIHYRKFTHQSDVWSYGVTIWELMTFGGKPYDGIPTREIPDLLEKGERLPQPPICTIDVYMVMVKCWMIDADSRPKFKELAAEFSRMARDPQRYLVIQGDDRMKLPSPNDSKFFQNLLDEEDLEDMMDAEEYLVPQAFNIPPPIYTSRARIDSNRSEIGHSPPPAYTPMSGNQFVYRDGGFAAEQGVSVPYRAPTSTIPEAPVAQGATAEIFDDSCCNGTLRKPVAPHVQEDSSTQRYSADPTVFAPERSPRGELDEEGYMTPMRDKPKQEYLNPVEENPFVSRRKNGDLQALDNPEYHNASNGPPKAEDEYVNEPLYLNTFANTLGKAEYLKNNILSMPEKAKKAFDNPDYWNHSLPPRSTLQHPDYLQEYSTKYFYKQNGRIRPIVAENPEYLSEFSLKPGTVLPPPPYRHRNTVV

[14] = target: Tyrosine-protein kinase Fes/Fps (Homo sapiens, UniProt P07332); test: Inhibition of FES (unknown origin) at 1 uM by Ambit Kinomescan binding assay relative to control; values are per cent of control
[15] = target: STE20-like serine/threonine-protein kinase (Homo sapiens) (UniProt Q9H2G2); test: Inhibition of SLK Lys2 labeling site harbouring IIHRDLKAGNILFTLDGDIK in human Huh-7 cell lysate at 1 uM by KiNativ Profiling analysis relative to control; format: subcellular
Sequence of STE20-like serine/threonine-protein kinase (Homo sapiens) (Q9H2G2 whole entry, looked up): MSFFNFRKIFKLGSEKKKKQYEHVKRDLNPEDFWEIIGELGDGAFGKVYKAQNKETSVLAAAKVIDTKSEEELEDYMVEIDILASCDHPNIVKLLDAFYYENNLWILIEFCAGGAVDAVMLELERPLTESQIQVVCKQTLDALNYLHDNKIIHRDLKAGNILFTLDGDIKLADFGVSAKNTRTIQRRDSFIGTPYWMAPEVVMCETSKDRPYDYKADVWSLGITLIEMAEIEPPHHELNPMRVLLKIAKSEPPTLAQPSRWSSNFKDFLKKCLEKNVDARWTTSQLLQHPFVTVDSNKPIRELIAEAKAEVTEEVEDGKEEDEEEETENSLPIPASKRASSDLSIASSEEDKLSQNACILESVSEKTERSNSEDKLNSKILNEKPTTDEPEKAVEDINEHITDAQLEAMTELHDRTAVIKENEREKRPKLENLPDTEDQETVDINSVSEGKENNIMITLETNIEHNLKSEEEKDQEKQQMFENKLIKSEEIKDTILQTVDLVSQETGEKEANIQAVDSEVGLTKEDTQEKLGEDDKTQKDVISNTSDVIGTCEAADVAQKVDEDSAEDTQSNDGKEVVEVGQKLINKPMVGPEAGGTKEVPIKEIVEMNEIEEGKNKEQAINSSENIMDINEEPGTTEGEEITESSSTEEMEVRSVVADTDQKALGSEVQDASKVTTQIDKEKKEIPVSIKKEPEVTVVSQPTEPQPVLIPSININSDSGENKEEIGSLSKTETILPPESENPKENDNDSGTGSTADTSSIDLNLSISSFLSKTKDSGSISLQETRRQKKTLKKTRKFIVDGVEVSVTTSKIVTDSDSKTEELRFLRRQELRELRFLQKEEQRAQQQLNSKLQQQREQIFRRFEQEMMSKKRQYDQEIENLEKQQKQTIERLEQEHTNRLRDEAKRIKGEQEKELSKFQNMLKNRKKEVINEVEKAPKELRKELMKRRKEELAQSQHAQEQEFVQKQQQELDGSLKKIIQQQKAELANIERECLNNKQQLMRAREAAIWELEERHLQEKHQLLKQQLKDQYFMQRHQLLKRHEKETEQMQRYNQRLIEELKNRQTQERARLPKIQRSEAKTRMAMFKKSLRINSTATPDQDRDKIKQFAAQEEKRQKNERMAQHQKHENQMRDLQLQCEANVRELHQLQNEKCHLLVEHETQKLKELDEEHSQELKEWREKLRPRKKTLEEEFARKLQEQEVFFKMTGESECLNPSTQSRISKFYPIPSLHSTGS

[16] = target: T3, Aurora kinase A (Homo sapiens) (UniProt O14965); test: Inhibition of AurA ATP labeling site in human Huh-7 cell lysate at 1 uM by KiNativ Profiling analysis relative to control; format: subcellular
T3 sequence (whole entry): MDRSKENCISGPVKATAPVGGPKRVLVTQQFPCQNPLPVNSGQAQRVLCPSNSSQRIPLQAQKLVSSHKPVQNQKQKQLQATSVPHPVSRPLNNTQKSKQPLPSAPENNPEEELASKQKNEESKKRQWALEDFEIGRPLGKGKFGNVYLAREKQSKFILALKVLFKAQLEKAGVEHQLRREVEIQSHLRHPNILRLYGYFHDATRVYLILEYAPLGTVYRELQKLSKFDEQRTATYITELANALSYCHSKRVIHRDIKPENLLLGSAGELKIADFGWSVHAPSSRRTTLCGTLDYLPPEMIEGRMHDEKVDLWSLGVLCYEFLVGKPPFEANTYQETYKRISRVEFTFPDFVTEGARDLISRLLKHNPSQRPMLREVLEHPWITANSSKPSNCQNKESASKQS

[17] = target: Ribosomal protein S6 kinase alpha-3 (Homo sapiens) (UniProt P51812); test: Inhibition of RSK2 domain2 ACT labeling site in human Huh-7 cell lysate at 1 uM by KiNativ Profiling analysis relative to control; format: subcellular

CCN1CCN(Cc2ccc(NC(=O)c3ccc(C)c(Oc4ccnc5[nH]ccc45)c3)cc2C(F)(F)F)CC1
inhibition [1]: 31.9% | inhibition [2]: 18% | inhibition [3]: 30.1% | inhibition [4]: inactive | % of control [5]: 1.6% | inhibition [6]: inactive | inhibition [7]: 4.5% | inhibition [8]: 11% | inhibition [9]: inactive | inhibition [10]: inactive

CCN1CCN(Cc2ccc(NC(=O)c3ccc(C)c(/C=C/c4cnc5[nH]ccc5c4OC)c3)cc2C(F)(F)F)CC1
inhibition [11]: 81% | inhibition [12]: 100% | inhibition [13]: 3% | residual activity [14]: 6.8%

CNc1cc(Oc2cc(C(=O)Nc3cc(N4CCN(C)CC4)cc(C(F)(F)F)c3)ccc2C)ncn1
inhibition [15]: 24.8% | inhibition [16]: 2.5% | inhibition [17]: 1.9%
